The text below walks through data of ChEMBL document CHEMBL5727703, “Bicyclic hydroxamic acids useful as inhibitors of mammalian histone deacetylase activity” (2020).

pIC50: −log10 of the molar value.

The target of this experiment is T1, Protein deacetylase HDAC6 (Homo sapiens, UniProt Q9UBN7).
T1 sequence (Q9UBN7 whole entry): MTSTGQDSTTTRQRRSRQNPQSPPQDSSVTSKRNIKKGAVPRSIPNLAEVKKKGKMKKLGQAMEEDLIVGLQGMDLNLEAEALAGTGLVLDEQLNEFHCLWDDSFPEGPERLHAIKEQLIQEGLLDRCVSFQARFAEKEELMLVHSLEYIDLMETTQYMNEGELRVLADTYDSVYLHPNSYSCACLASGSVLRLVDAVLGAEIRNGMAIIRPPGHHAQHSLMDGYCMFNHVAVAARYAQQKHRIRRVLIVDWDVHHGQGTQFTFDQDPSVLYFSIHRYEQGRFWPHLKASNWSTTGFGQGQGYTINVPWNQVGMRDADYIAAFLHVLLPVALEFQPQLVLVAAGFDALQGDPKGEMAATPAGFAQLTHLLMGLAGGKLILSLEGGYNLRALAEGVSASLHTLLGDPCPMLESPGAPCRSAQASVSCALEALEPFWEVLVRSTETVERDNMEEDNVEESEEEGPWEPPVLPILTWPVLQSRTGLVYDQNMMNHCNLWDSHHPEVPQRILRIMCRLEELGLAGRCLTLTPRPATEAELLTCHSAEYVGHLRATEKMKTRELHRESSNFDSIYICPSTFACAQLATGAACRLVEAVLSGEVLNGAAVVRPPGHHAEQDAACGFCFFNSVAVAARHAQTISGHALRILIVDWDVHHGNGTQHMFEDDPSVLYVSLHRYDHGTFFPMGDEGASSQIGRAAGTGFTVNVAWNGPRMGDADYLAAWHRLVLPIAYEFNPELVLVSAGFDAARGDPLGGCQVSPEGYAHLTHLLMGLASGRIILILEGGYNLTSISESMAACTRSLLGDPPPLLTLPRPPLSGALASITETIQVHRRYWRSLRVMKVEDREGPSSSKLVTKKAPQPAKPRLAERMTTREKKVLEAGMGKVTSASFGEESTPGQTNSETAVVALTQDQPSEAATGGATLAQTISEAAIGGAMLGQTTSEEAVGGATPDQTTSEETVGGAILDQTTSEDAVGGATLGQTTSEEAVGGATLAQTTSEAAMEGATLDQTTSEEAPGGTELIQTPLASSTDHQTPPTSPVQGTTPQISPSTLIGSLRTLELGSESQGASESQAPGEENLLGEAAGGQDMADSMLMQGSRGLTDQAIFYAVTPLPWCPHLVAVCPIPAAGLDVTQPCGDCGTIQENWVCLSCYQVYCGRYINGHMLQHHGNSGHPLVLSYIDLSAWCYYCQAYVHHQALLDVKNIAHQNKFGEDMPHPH
The experiment can be described thus: In Vitro Enzymatic Assay: The assay principle is well known and all necessary reagents like enzymes, substrates, developer and reference compounds are commercially available. Stock solutions (10 mM in DMSO) of compounds were serially diluted 1:3 in 11 concentrations with a top concentration of 200 μM for HDAC1,2,3 and 2 μM for HDAC6 and HDAC8. The enzymatic reactions were conducted in a mixture containing assay buffer, bovine serum albumin, HDAC substrate, and a test compound. After enzymatic reaction, developer was added and after an additional incubation time, fluorescence intensity was measured at an excitation wavelength of 360 nm and an emission wavelength of 460 nm. All experiments were performed in duplicate.

Regarding `Cn1cc(CNCC2CCN(c3nc4cc(C(=O)NO)ccc4o3)CC2)c2ccccc21`, the pIC50 was 7.39.
